Assay results from patent publication US11787762B2, “Tetralin and tetrahydroquinoline compounds as inhibitors of HIF-2alpha” (ARCUS BIOSCIENCES, INC., priority 2020, dated 2023).

Assays:
[1] = biological target: T1, Histidine tagged HIF-2α protein containing PAS-B domain (240-350) (Homo sapiens, UniProt Q99814); assay: HIF-2α Scintillation Proximity Assay (SPA) binding assay; settings: 50 nM HIF-2α protein, 25 nM 3H-tracer
T1 construct: HIF-2α protein containing PAS-B domain (240-350); made in house
T1 sequence (Q99814 240-350): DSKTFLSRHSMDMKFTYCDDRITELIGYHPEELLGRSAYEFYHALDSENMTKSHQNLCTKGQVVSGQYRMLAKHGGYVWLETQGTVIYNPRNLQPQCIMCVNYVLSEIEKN
Method: HIF-2α Scintillation Proximity Assay (SPA) Binding Assay:
Tritium labeled compound N-(3-chlorophenyl)-4-nitro-2,1,3-benzoxadiazol-5-amine was obtained from American Radiolabeled Chemicals Inc. and copper chelate PVT SPA beads were from PerkinElmer (Cat #RPNQ0095). Histidine tagged HIF-2α protein containing PAS-B domain (240-350) was prepared and purified in house.
Compounds solubilized in DMSO were dispensed into a white 384-well polystyrene non-binding flat clear bottom plate (Greiner Bio-One, Cat #781903) using an HP D300 dispenser. Ten microliters of HIS-tagged HIF-2α protein in buffer (25 mM Tris-HCl, pH 7.4, 150 mM NaCl, 0.15% BSA and 0.001% Tween 20) was added to the compound wells and allowed to incubate for 1 hour at room temperature. Ten microliters of SPA bead mix were added to the wells and incubated for an additional 45 minutes, followed by 10 ul of ^3H-tracer solution. Final assay conditions comprised 50 nM HIF-2α protein, 25 nM radiolabeled tracer and 3 ug beads per well with compounds in 2% DMSO. The plate was read using a MicroBeta Microplate Counter (PerkinElmer) for luminescence detection. The IC50 values of the test compounds were determined from compound dose response curves fitted using a standard four parameter fit equation and are reported in Table 1, Table 2, and Table 3.

[2] = biological target: T2, HIF-2α (Homo sapiens, UniProt Q99814); assay: HIF-2α luciferase reporter assay in HIF-Luc-786-O cells; assay type: cell-based
T2 construct: host or cells: 786-O cells stably transduced with Cignal Lenti HIF Luc Reporter (only the reporter was introduced, not HIF-2α)
T2 sequence (Q99814 whole entry): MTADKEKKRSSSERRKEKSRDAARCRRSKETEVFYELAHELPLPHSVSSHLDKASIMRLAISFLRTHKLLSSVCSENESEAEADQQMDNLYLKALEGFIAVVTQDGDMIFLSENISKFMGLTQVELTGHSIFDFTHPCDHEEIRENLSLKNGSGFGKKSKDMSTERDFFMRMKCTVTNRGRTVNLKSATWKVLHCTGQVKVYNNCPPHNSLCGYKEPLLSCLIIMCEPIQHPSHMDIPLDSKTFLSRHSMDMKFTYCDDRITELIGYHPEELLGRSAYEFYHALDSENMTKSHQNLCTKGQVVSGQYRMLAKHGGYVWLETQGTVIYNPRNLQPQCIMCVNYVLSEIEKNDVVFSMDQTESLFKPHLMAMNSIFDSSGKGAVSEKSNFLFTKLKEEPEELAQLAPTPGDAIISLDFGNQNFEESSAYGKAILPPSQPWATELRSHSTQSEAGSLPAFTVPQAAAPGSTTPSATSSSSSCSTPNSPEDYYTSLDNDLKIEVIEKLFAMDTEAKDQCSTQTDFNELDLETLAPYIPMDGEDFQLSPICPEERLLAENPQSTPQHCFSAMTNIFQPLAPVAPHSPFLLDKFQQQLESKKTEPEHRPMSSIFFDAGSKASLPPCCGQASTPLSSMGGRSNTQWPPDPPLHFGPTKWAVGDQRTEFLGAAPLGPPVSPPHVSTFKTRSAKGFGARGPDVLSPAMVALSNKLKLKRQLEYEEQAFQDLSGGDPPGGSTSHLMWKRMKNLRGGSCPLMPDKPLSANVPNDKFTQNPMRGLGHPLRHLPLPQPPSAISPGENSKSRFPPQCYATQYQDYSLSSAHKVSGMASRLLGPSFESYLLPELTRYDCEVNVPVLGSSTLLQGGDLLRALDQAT
Summary of the method: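 Luminescence (ONE-Glo) read after 20 h compound incubation, top concentration 50 uM, 1% DMSO, 20,000 HIF-Luc-786-O cells per well. Activity scaled between DMSO maximum and no-cell baseline; four-parameter dose-response fits yielded IC50.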

Structure (SMILES)	IC50 ([1]; Table 1) [nM]	IC50 ([2]; Table 1, 20 hours incubation) [nM]	also measured
N#Cc1cc(F)cc2c1N(c1ccc(C(F)(F)F)c(F)c1Cl)CCC2 [Example 15, 1-[2-chloro-3-fluoro-4-(trifluoromethyl)phenyl]-6-fluoro-1,2,3,4-tetrahydroquinoline-8-carbonitrile]	100 to 1000	100 to 1000	
CS(=O)(=O)c1ccc([C@H]2CCCc3cc(F)cc(F)c32)c2c1[C@H](O)C(F)(F)C2 [Example 93]	< 100	100 to 1000	
N#Cc1cc(F)cc2c1[C@@H](c1ccc(C(F)(F)F)c(Cl)c1C#N)CC[C@@H]2F [Example 137, (5S,8R)-8-[3-Chloro-2-cyano-4-(trifluoromethyl)phenyl]-3,5-difluoro-5,6,7,8-tetrahydronaphthalene-1-carbonitrile]			IC50 ([1]; Table 2): < 100 nM; IC50 ([2]; Table 2, 20 hours incubation): < 100 nM
O=S1(=O)c2ccc(C3CCCc4cc(F)cc(F)c43)c(Cl)c2C(O)C1(F)F (centres unmarked) [Example 103]	> 1000	> 1000	
CS(=O)(=O)c1ccc(N2CCCc3cc(F)cc(C#N)c32)c(Cl)c1C#N [Example 11, 1-(2-Chloro-3-cyano-4-methanesulfonylphenyl)-6-fluoro-1,2,3,4-tetrahydroquinoline-8-carbonitrile]	100 to 1000	100 to 1000	
CS(=O)(=O)c1c(Cl)cc([C@H]2CC[C@H](F)c3cc(F)cc(C#N)c32)c2c1[C@H](O)[C@H](F)C2 [Example 213, (5S,8R)-8-[(1S,2R)-6-Chloro-2-fluoro-1-hydroxy-7-methylsulfonyl-2,3-dihydro-1H-inden-4-yl]-3,5-difluoro-5,6,7,8-tetrahydronaphthalene-1-carbonitrile]			IC50 ([1]; Table 3): < 100 nM; IC50 ([2]; Table 3, 20 hours incubation): < 100 nM
CC(O)(c1ccc(N2CCCc3cc(F)cc(F)c32)c([N+](=O)[O-])c1)C(F)(F)F (centres unmarked) [Example 87]	> 1000	> 1000	
N#Cc1cc(F)cc2c1[C@@H](c1ccc(S(=O)(=O)C(F)(F)F)c3c1C[C@@H](F)[C@H]3O)CC[C@@H]2F [Example 136, (5S,8R)-3,5-Difluoro-8-[(1S,2R)-2-fluoro-1-hydroxy-7-(trifluoromethylsulfonyl)-2,3-dihydro-1H-inden-4-yl]-5,6,7,8-tetrahydronaphthalene-1-carbonitrile]			IC50 ([1]; Table 2): < 100 nM; IC50 ([2]; Table 2, 20 hours incubation): < 100 nM
N#Cc1cc(F)cc2c1N(c1ccc(C(F)(F)F)c(C#N)c1Cl)CCO2 [Example 36]	100 to 1000	100 to 1000	
O=S(=O)(c1ccc(N2CCCc3cc(F)cc(F)c32)c2c1C(F)C(F)(F)C2)C(F)(F)F (centres unmarked) [Example 48]	100 to 1000	> 1000	
O=[N+]([O-])c1cc(S(=O)(=O)C(F)(F)F)ccc1N1CCCc2ccc(F)c(F)c21 [Example 57]	> 1000	> 1000	
O=S1(=O)c2ccc(N3CCCc4cc(F)cc(F)c43)c(Cl)c2C(F)C1(F)F (centres unmarked) [Example 56]	100 to 1000	> 1000	
N#Cc1cc(F)cc2c1N(c1ccc(C(F)(F)F)c(F)c1CO)CCC2 [Example 42]	100 to 1000	> 1000	
COC1CCN(c2ccc(C(F)(F)F)c(F)c2C#N)c2c(C#N)cc(F)cc21 (centres unmarked) [Example 131, 1-[2-Cyano-3-fluoro-4-(trifluoromethyl)phenyl]-6-fluoro-4-methoxy-3,4-dihydro-2H-quinoline-8-carbonitrile]			IC50 ([1]; Table 2): < 100 nM; IC50 ([2]; Table 2, 20 hours incubation): < 100 nM
CC(F)(F)c1ccc(N2CCC(F)(F)c3cc(F)cc(C#N)c32)c(C#N)c1F [Example 133, 1-[2-cyano-4-(1,1-difluoroethyl)-3-fluorophenyl]-4,4,6-trifluoro-1,2,3,4-tetrahydro-8-quinolinecarbonitrile]			IC50 ([1]; Table 2): < 100 nM; IC50 ([2]; Table 2, 20 hours incubation): < 100 nM
N#Cc1ccccc1-c1ccc([C@H]2CC[C@H](F)c3cc(F)cc(C#N)c32)c2c1[C@H](O)C(F)(F)C2 [Example 162, (5S,8R)-8-[(1S)-7-(2-cyanophenyl)-2,2-difluoro-1-hydroxy-1,3-dihydroinden-4-yl]-3,5-difluoro-5,6,7,8-tetrahydronaphthalene-1-carbonitrile]			IC50 ([1]; Table 3): < 100 nM; IC50 ([2]; Table 3, 20 hours incubation): < 100 nM
N#Cc1cc(F)cc2c1N(c1ccc(S(=O)(=O)C(F)(F)F)c(C#N)c1Cl)CCC2 [Example 10, 1-(2-chloro-3-cyano-4-trifluoromethanesulfonylphenyl)-6-fluoro-1,2,3,4-tetrahydroquinoline-8-carbonitrile]	< 100	< 100	

Structure (SMILES)	IC50 ([1]; Table 1) [nM]	IC50 ([2]; Table 1, 20 hours incubation) [nM]	also measured
N#Cc1cc(S(=O)(=O)C(F)(F)F)ccc1N1CCCc2cc(F)cc(F)c21 [Example 80]	> 1000	> 1000	
N#Cc1cc(F)cc2c1[C@@H](c1ccc(S(=O)(=O)C(F)F)c3c1C[C@@H](F)[C@H]3O)CCC2 [Example 115]	< 100	< 100	
Cc1c(-c2ccc([C@H]3CC[C@H](F)c4cc(F)cc(C#N)c43)c3c2[C@H](O)C(F)(F)C3)cnn1C [Example 166, (5S,8R)-8-[(1S)-7-(1,5-dimethyl-1H-pyrazol-4-yl)-2,2-difluoro-1-hydroxy-2,3-dihydro-1H-inden-4-yl]-3,5-difluoro-5,6,7,8-tetrahydronaphthalene-1-carbonitrile]			IC50 ([1]; Table 3): < 100 nM; IC50 ([2]; Table 3, 20 hours incubation): < 100 nM
O=S(=O)(c1ccc([C@@H]2CCNc3cc(F)cc(F)c32)c2c1[C@H](O)[C@H](F)C2)C(F)(F)F [Example 112]	> 1000	> 1000	
N#Cc1cc(N2CCCc3cc(F)cc(C#N)c32)ccc1C(F)(F)F [Example 39]	< 100	> 1000	
CS(=O)(=O)c1ccc([C@H]2CC[C@H](F)c3cc(F)cc(C#N)c32)c2c1[C@H](O)[C@H](F)C2 [Example 134, (5S,8R)-3,5-Difluoro-8-[(1S,2R)-2-fluoro-1-hydroxy-7-methylsulfonyl-2,3-dihydro-1H-inden-4-yl]-5,6,7,8-tetrahydronaphthalene-1-carbonitrile]			IC50 ([1]; Table 2): < 100 nM; IC50 ([2]; Table 2, 20 hours incubation): < 100 nM
CS(=O)(=O)c1ccc([C@H]2CCCc3cc(F)cc(C#N)c32)c2c1[C@H](O)[C@H](F)[C@@H]2F [Example 140, (8R)-8-[(1S,2S,3R)-2,3-difluoro-1-hydroxy-7-methylsulfonyl-2,3-dihydro-1H-inden-4-yl]-3-fluoro-5,6,7,8-tetrahydronaphthalene-1-carbonitrile]			IC50 ([1]; Table 2): < 100 nM; IC50 ([2]; Table 2, 20 hours incubation): < 100 nM
N#Cc1cc(F)cc2c1N(c1ccc(S(=O)(=O)C(F)(F)F)c3c1C[C@@H](F)[C@H]3O)CCO2 [Example 19, 7-fluoro-4-((1S,2R)-2-fluoro-1-hydroxy-7-((trifluoromethyl)sulfonyl)-2,3-dihydro-1H-inden-4-yl)-3,4-dihydro-2H-benzo[b][1,4]oxazine-5-carbonitrile]	100 to 1000	100 to 1000	
Cc1ccncc1-c1ccc([C@H]2CC[C@H](F)c3cc(F)cc(C#N)c32)c2c1[C@H](O)C(F)(F)C2 [Example 241, (5S,8R)-8-[(1S)-2,2-difluoro-1-hydroxy-7-(4-methylpyridin-3-yl)-2,3-dihydro-1H-inden-4-yl]-3,5-difluoro-5,6,7,8-tetrahydronaphthalene-1-carbonitrile]			IC50 ([1]; Table 3): < 100 nM; IC50 ([2]; Table 3, 20 hours incubation): < 100 nM
Cc1c([C@H]2CC[C@H](F)c3cc(F)cc(C#N)c32)cnc(C(C)(F)F)c1F [Example 139, (5S,8S)-8-[6-(1,1-difluoroethyl)-5-fluoro-4-methylpyridin-3-yl]-3,5-difluoro-5,6,7,8-tetrahydronaphthalene-1-carbonitrile]			IC50 ([1]; Table 2): < 100 nM; IC50 ([2]; Table 2, 20 hours incubation): < 100 nM
CS(=O)(=O)c1ccc([C@H]2CCCc3cc(F)cc(F)c32)c2c1[C@H](O)[C@H](F)C2 (stereo in doubt) [Example 99]	100 to 1000	100 to 1000	
O=S(=O)(c1ccc(C2CCCc3cc(F)cc(F)c32)c2ccncc12)C(F)(F)F (centres unmarked) [Example 25, 5-(6,8-Difluoro-1,2,3,4-tetrahydronaphth-1-yl)-8-(trifluoromethylsulfonyl)isoquinoline]	> 1000	> 1000	
N#Cc1cc(F)cc2c1N(c1ccc(S(=O)(=O)C(F)(F)F)c3ncccc13)CCC2 [Example 40]	100 to 1000	> 1000	
COc1cc(F)cc2c1N(c1ccc(S(=O)(=O)C(F)(F)F)c(C#N)c1Cl)CCC2 [Example 18, 2-chloro-3-(6-fluoro-8-methoxy-3,4-dihydroquinolin-1(211)-yl)-6-((trifluoromethyl)sulfonyl)benzonitrile]	> 1000	> 1000	
Cc1ccc2c(c1)N(c1ccc(S(=O)(=O)C(F)(F)F)cc1[N+](=O)[O-])CCC2 [Example 74]	> 1000	> 1000	
O=S(=O)(c1ccc([C@H]2CCNc3cc(F)cc(F)c32)c2c1[C@H](O)[C@H](F)C2)C(F)(F)F [Example 102]	> 1000	> 1000	
O=[N+]([O-])c1cc(C(O)C(F)(F)F)ccc1N1CCCc2cc(F)cc(F)c21 (centres unmarked) [Example 84]	> 1000	> 1000	
